Test results published in ChEMBL document CHEMBL1944567, “Synthesis, biological evaluation, and molecular modeling of chalcone derivatives as potent inhibitors of Mycobacterium tuberculosis protein tyrosine phosphatases (PtpA and PtpB)” (J Med Chem, 2012).

Molecular target: T1, Low molecular weight protein-tyrosine phosphatase A (Mycobacterium tuberculosis, UniProt P9WIA1)
T1 sequence (P9WIA1 whole entry): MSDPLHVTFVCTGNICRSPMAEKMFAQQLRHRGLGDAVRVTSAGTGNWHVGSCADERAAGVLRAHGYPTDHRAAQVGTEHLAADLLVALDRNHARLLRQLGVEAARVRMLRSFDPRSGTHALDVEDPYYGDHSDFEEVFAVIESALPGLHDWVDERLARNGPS
Test: Inhibition of Mycobacterium tuberculosis PTP-A

Molecule COc1cc(-c2[nH]ccc2Cl)oc1C1=C2N=C3C=C2[C@H](C(C)C)[C@H]1CCCCCCCC3 [ROSEOPHILIN] has an IC50 of 8.8 µM.
